# Target: PDE2A (Homo sapiens (Human), UniProt O00408)
# Test: IMAP TR-FRET PDE2A enzymatic assay
# Assay type: biochemical
# Conditions: FLAG-tagged PDE2A1 (amino acids 2-941), 200 nM FAM-cAMP substrate, 11-point half-log dose-response; for IC50: read-out: PDE2 (pIC50) (converted)
# From the text: An IMAP TR-FRET-based phosphodiesterase assay was developed using the PDE2A isoform. IMAP technology is based on high-affinity binding of phosphate by immobilized metal (MIII) coordination complexes on nanoparticles. The IMAP “binding reagent” recognizes phosphate groups on AMP or GMP generated from cAMP or cGMP in a PDE reaction. Cyclic nucleotides that carry a phosphodiester bond and not a free phosphate are not recognized by the binding reagent. The time resolved fluorescence resonance energy transfer (TR-FRET) is afforded by a Terbium (Tb)-Donor pre-bound to the nanoparticles. FRET occurs when the fluorescent-labeled AMP or GMP product of a PDE reaction binds and comes into close proximity to the Tb-Donor complex. Due to the long lifetime of Tb fluorescence, detection can be run in time-resolved mode to reduce or eliminate interference from auto-fluorescent compounds.
# The IMAP TR-FRET PDE2A assay was performed in 1536-well white plates. A total of 250 pg per well of FLAG-tagged PDE2A 1 (amino acids 2-941) was dispensed in 2.5 μL IMAP assay buffer consisting of 10 mM Tris pH 7.2, 10 mM MgCl2, 1 mM DTT, and 0.1% fatty acid free BSA. 30 nL of compound was then added from 1 mM stocks in DMSO using a Kalypsys Pintool. Plates were incubated for 5 min at room temperature before dispensing 1.5 μL of 533 nM FAM-cAMP substrate for a final concentration of 200 nM. Following a brief centrifugation, plates were incubated for 30 min at room temperature. The assay was terminated by adding 5 μL IMAP binding reagent Tb complex to each well which was prepared according to manufacturer's recommendations (Molecular Devices). Plates were incubated an additional 120 minutes at room temperature and read on a Viewlux plate reader. All compounds were solvated at a concentration of 10 mM in DMSO and tested in 11-point half-log dose-response. Curve fitting and IC50 values were determined using a standard four parameter fit.
# Chain of PDE2A (O00408 2-941): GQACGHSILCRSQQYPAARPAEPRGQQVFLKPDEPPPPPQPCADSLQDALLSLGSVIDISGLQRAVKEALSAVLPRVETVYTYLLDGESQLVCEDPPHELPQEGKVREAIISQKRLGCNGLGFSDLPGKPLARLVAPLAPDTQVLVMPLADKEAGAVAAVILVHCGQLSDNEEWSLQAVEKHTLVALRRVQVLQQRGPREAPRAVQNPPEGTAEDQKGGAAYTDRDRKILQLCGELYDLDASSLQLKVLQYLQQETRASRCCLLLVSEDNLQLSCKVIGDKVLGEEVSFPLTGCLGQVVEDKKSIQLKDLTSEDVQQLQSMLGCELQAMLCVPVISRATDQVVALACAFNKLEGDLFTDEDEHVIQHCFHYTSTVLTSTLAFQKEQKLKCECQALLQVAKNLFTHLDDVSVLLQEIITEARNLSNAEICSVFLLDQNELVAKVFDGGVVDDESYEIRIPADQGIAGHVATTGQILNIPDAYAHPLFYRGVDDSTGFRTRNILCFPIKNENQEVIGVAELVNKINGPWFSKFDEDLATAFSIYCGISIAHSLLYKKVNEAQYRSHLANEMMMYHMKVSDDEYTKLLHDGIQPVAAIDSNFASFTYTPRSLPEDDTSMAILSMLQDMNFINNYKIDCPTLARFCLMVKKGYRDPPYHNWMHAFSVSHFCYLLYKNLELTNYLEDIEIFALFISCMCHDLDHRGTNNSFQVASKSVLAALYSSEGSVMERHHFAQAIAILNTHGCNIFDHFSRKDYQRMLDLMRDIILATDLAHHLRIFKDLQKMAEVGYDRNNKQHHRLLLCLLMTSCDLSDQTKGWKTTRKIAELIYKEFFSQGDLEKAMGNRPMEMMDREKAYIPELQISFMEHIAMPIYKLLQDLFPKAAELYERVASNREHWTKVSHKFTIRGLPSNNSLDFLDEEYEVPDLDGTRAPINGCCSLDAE
Structure (SMILES),PDE2 (pIC50),IC50 [nM]
"Cc1nc2c(c(C3CC3)nn2[C@@H](C)c2ccc(C(F)(F)F)cn2)c(=O)[nH]1 [Example 25, 3-cyclopropyl-6-methyl-1-[(1S)-1-[5-(trifluoromethyl)pyridin-2-yl]ethyl]-1H,4H,5H-pyrazolo[3,4-d]pyrimidin-4-one]",>7,–
"CCC(c1ccc(C(F)(F)F)nc1)n1nc(C2CCC2)c2c(=O)[nH]c(C)nc21 (stereo not shown) [Example 4, 3-cyclobutyl-6-methyl-1-{1-[6-(trifluoromethyl)pyridin-3-yl]propyl}-1H,4H,5H-pyrazolo[3,4-d]pyrimidin-4-one]",–,> 10000
"COc1ccc(Cc2nc3c(c(C4CC4)nn3[C@H](C)c3ccc(C(F)(F)F)nc3)c(=O)[nH]2)nc1 [Example 6, 3-cyclopropyl-6-[(5-methoxypyridin-2-yl)methyl]-1-[(1R)-1-[6-(trifluoromethyl)pyridin-3-yl]ethyl]-1H,4H,5H-pyrazolo[3,4-d]pyrimidin-4-one]",–,100 to 1000
"CCC(c1ccc(C(F)(F)F)cn1)n1nc(C2CC2)c2c(=O)[nH]c(C)nc21 (stereo not shown) [Example 9, 3-cyclopropyl-6-methyl-1-{1-[5-(trifluoromethyl)pyridin-2-yl]propyl}-1H,4H,5H-pyrazolo[3,4-d]pyrimidin-4-one]",>7,–
"CCC(c1ccc(C(F)(F)F)nc1)n1nc(C2CC2)c2c(=O)[nH]c(Cc3ccc(OC)cn3)nc21 (stereo not shown) [Example 1, 3-cyclopropyl-6-[(5-methoxypyridin-2-yl)methyl]-1-{1-[6-(trifluoromethyl)pyridin-3-yl]propyl}-1H,4H,5H-pyrazolo[3,4-d]pyrimidin-4-one]",>7,–
"CC[C@@H](c1ccc(C(F)(F)F)nc1)n1nc(C2CC2)c2c(=O)[nH]c(Cc3ccc(F)cn3)nc21 [Example 21, 3-cyclopropyl-6-[(5-fluoropyridin-2-yl)methyl]-1-[(1S)-1-[6-(trifluoromethyl)pyridin-3-yl]propyl]-1H,4H,5H-pyrazolo[3,4-d]pyrimidin-4-one]",>7,–
"Cc1nc2c(c(C3CC3)nn2C(C)c2ccc(C(F)(F)F)cc2)c(=O)[nH]1 (stereo not shown) [Example 10, 3-cyclopropyl-6-methyl-1-{1-[4-(trifluoromethyl)phenyl]ethyl}-1H,4H,5H-pyrazolo[3,4-d]pyrimidin-4-one]",>7,–
"CC[C@@H](c1ccc(C(F)(F)F)cn1)n1nc(C2CC2)c2c(=O)[nH]c(C)nc21 [Example 23, 3-cyclopropyl-6-methyl-1-[(1S)-1-[5-(trifluoromethyl)pyridin-2-yl]propyl]-1H,4H,5H-pyrazolo[3,4-d]pyrimidin-4-one]",>7,–
"Cc1nc2c(c(C3CC3)nn2C(C)c2ccc(C(F)(F)F)cn2)c(=O)[nH]1 (stereo not shown) [Example 11, 3-cyclopropyl-6-methyl-1-{1-[5-(trifluoromethyl)pyridin-2-yl]ethyl}-1H,4H,5H-pyrazolo[3,4-d]pyrimidin-4-one]",>7,–
"CC[C@H](c1ccc(C(F)(F)F)cn1)n1nc(C2CC2)c2c(=O)[nH]c(C)nc21 [Example 24, 3-cyclopropyl-6-methyl-1-[(1R)-1-[5-(trifluoromethyl)pyridin-2-yl]propyl]-1H,4H,5H-pyrazolo[3,4-d]pyrimidin-4-one]",–,1000 to 10000
"CCC(c1ccc(C(F)(F)F)nc1)n1nc(C2CC2)c2c(=O)[nH]c(C)nc21 (stereo not shown) [Example 3, 3-cyclopropyl-6-methyl-1-{1-[6-(trifluoromethyl)pyridin-3-yl]propyl}-1H,4H,5H-pyrazolo[3,4-d]pyrimidin-4-one]",–,100 to 1000
"Cc1nc2c(c(C3CC3)nn2[C@H](C)c2ccc(C(F)(F)F)nc2)c(=O)[nH]1 [Example 14, 3-cyclopropyl-6-methyl-1-[(1R)-1-[6-(trifluoromethyl)pyridin-3-yl]ethyl]-1H,4H,5H-pyrazolo[3,4-d]pyrimidin-4-one]",–,1000 to 10000
"CC[C@@H](c1ccc(C(F)(F)F)nc1)n1nc(C2CC2)c2c(=O)[nH]c(C)nc21 [Example 19, 3-cyclopropyl-6-methyl-1-[(1S)-1-[6-(trifluoromethyl)pyridin-3-yl]propyl]-1H,4H,5H-pyrazolo[3,4-d]pyrimidin-4-one]",>7,–
"CC(c1ccc(C(F)(F)F)nc1)n1nc(C2CC2)c2c(=O)[nH]c(Cc3ccc(F)cn3)nc21 (stereo not shown) [Example 7, 3-cyclopropyl-6-[(5-fluoropyridin-2-yl)methyl]-1-{1-[6-(trifluoromethyl)pyridin-3-yl]ethyl}-1H,4H,5H-pyrazolo[3,4-d]pyrimidin-4-one]",–,100 to 1000
"COc1ccc(Cc2nc3c(c(C4CC4)nn3C(C)c3ccc(C(F)(F)F)nc3)c(=O)[nH]2)nc1 (stereo not shown) [Example 2, 3-cyclopropyl-6-[(5-methoxypyridin-2-yl)methyl]-1-{1-[6-(trifluoromethyl)pyridin-3-yl]ethyl}-1H,4H,5H-pyrazolo[3,4-d]pyrimidin-4-one]",>7,–
"CC[C@@H](c1ccc(C(F)(F)F)nc1)n1nc(C2CC2)c2c(=O)[nH]c(Cc3ccc(OC)cn3)nc21 [Example 17, 3-cyclopropyl-6-[(5-methoxypyridin-2-yl)methyl]-1-[(1S)-1-[6-(trifluoromethyl)pyridin-3-yl]propyl]-1H,4H,5H-pyrazolo[3,4-d]pyrimidin-4-one]",>7,–
"CC[C@H](c1ccc(C(F)(F)F)nc1)n1nc(C2CC2)c2c(=O)[nH]c(C)nc21 [Example 20, 3-cyclopropyl-6-methyl-1-[(1R)-1-[6-(trifluoromethyl)pyridin-3-yl]propyl]-1H,4H,5H-pyrazolo[3,4-d]pyrimidin-4-one]",–,1000 to 10000
"C[C@@H](c1ccc(C(F)(F)F)nc1)n1nc(C2CC2)c2c(=O)[nH]c(Cc3ccc(F)cn3)nc21 [Example 15, 3-cyclopropyl-6-[(5-fluoropyridin-2-yl)methyl]-1-[(1S)-1-[6-(trifluoromethyl)pyridin-3-yl]ethyl]-1H,4H,5H-pyrazolo[3,4-d]pyrimidin-4-one]",–,100 to 1000
"COc1ccc(Cc2nc3c(c(C4CC4)nn3[C@@H](C)c3ccc(C(F)(F)F)nc3)c(=O)[nH]2)nc1 [Example 5, 3-cyclopropyl-6-[(5-methoxypyridin-2-yl)methyl]-1-[(1S)-1-[6-(trifluoromethyl)pyridin-3-yl]ethyl]-1H,4H,5H-pyrazolo[3,4-d]pyrimidin-4-one]",>7,–
"C[C@H](c1ccc(C(F)(F)F)nc1)n1nc(C2CC2)c2c(=O)[nH]c(Cc3ccc(F)cn3)nc21 [Example 16, 3-cyclopropyl-6-[(5-fluoropyridin-2-yl)methyl]-1-[(1R)-1-[6-(trifluoromethyl)pyridin-3-yl]ethyl]-1H,4H,5H-pyrazolo[3,4-d]pyrimidin-4-one]",<5,–
"CC[C@H](c1ccc(C(F)(F)F)nc1)n1nc(C2CC2)c2c(=O)[nH]c(Cc3ccc(F)cn3)nc21 [Example 22, 3-cyclopropyl-6-[(5-fluoropyridin-2-yl)methyl]-1-[(1R)-1-[6-(trifluoromethyl)pyridin-3-yl]propyl]-1H,4H,5H-pyrazolo[3,4-d]pyrimidin-4-one]",–,1000 to 10000
"Cc1nc2c(c(C3CC3)nn2[C@H](C)c2ccc(C(F)(F)F)cn2)c(=O)[nH]1 [Example 26, 3-cyclopropyl-6-methyl-1-[(1R)-1-[5-(trifluoromethyl)pyridin-2-yl]ethyl]-1H,4H,5H-pyrazolo[3,4-d]pyrimidin-4-one]",–,1000 to 10000
"CCC(c1ccc(C(F)(F)F)nc1)n1nc(C2CC2)c2c(=O)[nH]c(Cc3ccc(F)cn3)nc21 (stereo not shown) [Example 8, 3-cyclopropyl-6-[(5-fluoropyridin-2-yl)methyl]-1-{1-[6-(trifluoromethyl)pyridin-3-yl]propyl}-1H,4H,5H-pyrazolo[3,4-d]pyrimidin-4-one]",>7,–
"CC[C@H](c1ccc(C(F)(F)F)nc1)n1nc(C2CC2)c2c(=O)[nH]c(Cc3ccc(OC)cn3)nc21 [Example 18, 3-cyclopropyl-6-[(5-methoxypyridin-2-yl)methyl]-1-[(1R)-1-[6-(trifluoromethyl)pyridin-3-yl]propyl]-1H,4H,5H-pyrazolo[3,4-d]pyrimidin-4-one]",<5,–
"Cc1nc2c(c(C3CC3)nn2C(C)c2ccc(C(F)(F)F)nc2)c(=O)[nH]1 (stereo not shown) [Example 12, 3-cyclopropyl-6-methyl-1-{1-[6-(trifluoromethyl)pyridin-3-yl]ethyl}-1H,4H,5H-pyrazolo[3,4-d]pyrimidin-4-one]",>7,–

# From patent US10981916B2, “Substituted pyrazolopyrimidinone compounds as PDE2 inhibitors” (DART NEUROSCIENCE, LLC, priority 2016, dated 2021)
